Results: patent US6365578B1, “Drug cominbations containing AZT” (Roger Williams General Hospital, priority 1990, dated 2002)
Where two headings read alike, the source gives them in different places.

Columns and labels:
[1] = test system: Balb/C female athymic (nude) mice; settings: 2 courses
Protocol: (§1) The mice were divided into groups of 5-8 animals each and treated with different doses and schedules of FUra, AZT, or both in combination. FUra and AZT were dissolved in normal saline immediately before use and were administered by intraperitoneal bolus injection so that the desired dose was contained in 0.1 ml/10 g animal body weight. FUra was administered in doses corresponding to 80, 90 and 100 mg/kg weekly or 20, 25, and 30 mg/kg for 5 consecutive days with intervening 2 week rest periods. The AZT component was administered at doses of 300 or 600 mg/kg. In those cases where the two components were not administered simultaneously, the FUra component was administered first followed in approximately 2 hours with the AZT component. Toxicity was assessed by determination of mortality, changes in body weight, and changes in white blood cell counts (WBC). Animal body weights were recorded immediately before and twice weekly after initiation of treatment and weight change was calculated as a percentage of the initial body weight. To determine WBC, blood was collected from the orbital sinus in a heparinized Natelson pipette, and after appropriate dilution the cell number was determined electronically one week after each course of therapy. The tests were carried out in duplicate and the pooled number of animals per treatment group was 10-16.
A second series of toxicity tests were carried out using a different regimen with similar groups of animals as follows:
Group 1 was treated with 600 mg/kg of AZT for days 3 to 5 inclusive; Group 2 was treated with 20 mg/kg of FUra from days 1 to 5; Group 3 was treated with 20 mg/kg of FUra for days 1 to 5 and with 600 mg/kg of AZT for days 3 to 5; Group 4 was treated with 25 mg/kg of FUra for days 1 to 5. The medication was administered by intraperitoneal bolus, the AZT being administered two hours after FUra. The treatment was repeated every two weeks. A total of 2 courses were administered, the tests being carried out in triplicate and the pool number of animals per treatment group corresponded to 21-30.

[2] = test system: Balb/C female athymic (nude) mice; settings: 4 courses
Protocol: In vivo tests to assess the toxicity of various dosages of AZT and FUra were carried out on Balb/C female athymic (nude) mice.
as §1
In the control group the mice received no treatment; in group 2 they received 600 mg/kg of AZT; in group 3 they received 85 mg/kg of FUra; in group 4 they received 85 mg/kg of FUra followed at a 2 hour interval by 600 mg/kg of AZT; in group 5 the mice received 100 mg/kg of FUra alone. A total of 4 courses of administration were carried out, each in triplicate, and the pooled number of animals per treatment group corresponded to 23-30.

[3] = test system: mice; experiment: LD10 of MTX in mice; format: in vivo; settings: weekly

SMILES: Cc1cn([C@H]2C[C@H](N=[N+]=[N-])[C@@H](CO)O2)c(=O)[nH]c1=O [AZT, 3′-azido-3′-deoxythymidine]
- Mortality (percent dead on day 29 after starting treatment) ([1]; AZT 600 mg/kg i.p. days 3 to 5, repeated every two weeks): 0%
- Mortality (percent dead on day 29 after starting treatment) ([2]; AZT 600 mg/kg i.p.): 0%

SMILES: O=c1[nH]cc(F)c(=O)[nH]1 [FUra, 5-fluorouracil]
- Mortality (percent dead on day 29 after starting treatment) ([1]; FUra 20 mg/kg i.p. days 1 to 5, repeated every two weeks): 0%
- Mortality (percent dead on day 29 after starting treatment) ([1]; FUra 25 mg/kg i.p. days 1 to 5, repeated every two weeks): 12.5%
- Mortality (percent dead on day 29 after starting treatment) ([2]; FUra 85 mg/kg i.p.): 25%
- Mortality (percent dead on day 29 after starting treatment) ([2]; FUra 100 mg/kg i.p.): 60.8%

SMILES: CN(Cc1cnc2nc(N)nc(N)c2n1)c1ccc(C(=O)N[C@@H](CCC(=O)O)C(=O)O)cc1 [MTX, methotrexate]
- LD10 [3]: 87.5 mg/kg/wk
